Test results taken from US20030109550A1, “Substituted indazole compounds for the treatment of inflammation” (priority 2001, published 2003).

What was measured:
[1] = target: T1, IKK heterodimer (rhIKK1/IKK2 heterodimer) (Homo sapiens, UniProt O14920+O15111); assay: IKK heterodimer Resin Enzyme Assay; type: biochemical; conditions: biotinylated IκBα peptide 5 μM, 1 μM ATP, 25° C., 30 min; read-out: HetD (IKK heterodimer Resin Enzyme Assay expressed as IC50)
T1 construct: made in house; host or cells: insect cells (baculovirus coinfection; SF9 cell paste)
T1 sequence (O15111 1-745): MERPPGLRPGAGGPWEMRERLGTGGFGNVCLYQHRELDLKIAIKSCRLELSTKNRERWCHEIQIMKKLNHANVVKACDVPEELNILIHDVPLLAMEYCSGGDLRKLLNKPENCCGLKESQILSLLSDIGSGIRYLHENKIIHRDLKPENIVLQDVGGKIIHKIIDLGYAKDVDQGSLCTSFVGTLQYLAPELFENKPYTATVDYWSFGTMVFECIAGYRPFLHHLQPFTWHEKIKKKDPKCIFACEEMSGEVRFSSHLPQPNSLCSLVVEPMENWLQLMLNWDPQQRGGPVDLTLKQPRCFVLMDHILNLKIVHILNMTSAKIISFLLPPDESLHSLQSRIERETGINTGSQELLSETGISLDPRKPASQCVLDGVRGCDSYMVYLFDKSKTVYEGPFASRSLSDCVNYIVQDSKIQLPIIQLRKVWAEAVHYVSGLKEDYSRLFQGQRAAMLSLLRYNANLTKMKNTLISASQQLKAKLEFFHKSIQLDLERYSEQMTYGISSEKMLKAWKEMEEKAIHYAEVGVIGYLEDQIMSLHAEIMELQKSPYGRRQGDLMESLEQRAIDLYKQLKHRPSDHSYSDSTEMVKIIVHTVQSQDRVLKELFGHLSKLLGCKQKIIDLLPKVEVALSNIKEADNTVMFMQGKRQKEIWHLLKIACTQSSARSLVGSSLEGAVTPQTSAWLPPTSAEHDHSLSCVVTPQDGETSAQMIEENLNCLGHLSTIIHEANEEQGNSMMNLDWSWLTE
T1 sequence (O14920 1-756): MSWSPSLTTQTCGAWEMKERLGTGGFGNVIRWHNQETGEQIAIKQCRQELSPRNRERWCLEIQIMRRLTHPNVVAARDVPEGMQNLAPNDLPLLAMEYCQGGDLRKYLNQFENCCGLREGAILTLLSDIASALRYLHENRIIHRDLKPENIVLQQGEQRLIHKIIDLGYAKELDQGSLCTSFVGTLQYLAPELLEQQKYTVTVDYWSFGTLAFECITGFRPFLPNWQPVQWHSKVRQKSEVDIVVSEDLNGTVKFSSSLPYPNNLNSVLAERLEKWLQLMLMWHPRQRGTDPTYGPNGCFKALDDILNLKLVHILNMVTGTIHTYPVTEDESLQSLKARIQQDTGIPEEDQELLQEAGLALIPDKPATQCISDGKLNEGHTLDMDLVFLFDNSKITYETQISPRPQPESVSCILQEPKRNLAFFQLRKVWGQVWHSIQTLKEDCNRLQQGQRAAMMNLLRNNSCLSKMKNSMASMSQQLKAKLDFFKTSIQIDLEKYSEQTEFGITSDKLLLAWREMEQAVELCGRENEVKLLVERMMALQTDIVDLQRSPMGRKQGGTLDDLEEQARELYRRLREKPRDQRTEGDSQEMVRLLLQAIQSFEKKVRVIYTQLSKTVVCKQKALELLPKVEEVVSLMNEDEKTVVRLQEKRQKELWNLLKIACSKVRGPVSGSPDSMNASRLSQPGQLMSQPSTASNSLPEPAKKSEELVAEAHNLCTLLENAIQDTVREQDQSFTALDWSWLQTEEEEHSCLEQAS
Excerpt: cDNAs of human IKK1 and IKK2 were amplified by reverse transcriptase-polymerase chain reaction from human placental RNA (Clonetech). hIKK1 was subcloned into pFastBac HTa (Life Technologies) and expressed as N-terminal His6-tagged fusion protein. The hIKK2 cDNA was amplified using a reverse oligonucleotide primer which incorporated the peptide sequence for a FLAG-epitope tag at the C-terminus of the IKK2 coding region (DYKDDDDKD). The hIKK2:FLAG cDNA was subcloned into the baculovirus vector pFastBac. The rhIKK2 ([…]) mutant was constructed in the same vector used for wild type rhIKK2 using a QuikChange™ mutagenesis kit (Stratagene) Viral stocks of each construct were used to infect insect cells grown in 40L suspension culture. […] Cell lysates were stored at −80° C. until purification of the recombinant proteins was undertaken as described in the succeeding sections.
Isolation of rhIKK1/IKK2 Heterodimer
The heterodimer enzyme was produced by coinfection in a baculovirus system (FLAG IKK2/IKK1 His; MOI=0.1 and I=72 hrs). Infected cells were centrifuged and the cell pellet (10.0 g) was suspended in 50 ml of buffer A. The protein suspension was microfluidized and centrifuged at 100,000×g for 45 min. Imidazole was added to the supernatant to a final concentration of 10 mM. The protein was allowed to bind 25 ml of Ni-NTA resin by mixing for 2 hrs. The protein-resin slurry was poured into a 25 ml column and washed with 250 ml of buffer A containing 10 mM imidazole followed by 125 ml of buffer A containing 50 mM imidazole. Buffer A, containing 300 mM imidazole, was then used to elute the protein. A 75 ml pool was collected and NP-40 was added to a final concentration of 0.1%. The protein solution was then dialyzed against buffer B. The dialyzed heterodimer enzyme was then allowed to bind to 25 ml of anti-FLAG M2 agarose affinity gel overnight with constant mixing. The protein-resin slurry was then centrifuged for 5 min at 2,000 rpm. The supernatant was collected and the resin re-suspended in 100 ml of buffer C containing 0.1% NP-40. The resin was washed with 375 ml of buffer C containing 0.1% NP-40. The protein-resin was poured into a 25 ml column and the enzyme eluted using buffer B containing FLAG peptide. Enzyme fractions (100 ml) were collected and concentrated to 20 ml using an Amicon membrane with molecular weight cut-off of 30 kDa. Bovine serum albumin was added to the concentrated enzyme to final concentration of 0.1%. The enzyme was then aliquoted and stored at −80° C.
IKK heterodimer Resin Enzyme Assay
IKK heterodimer kinase activity was measured using a biotinylated IκBα peptide (Gly-Leu-Lys-Lys-Glu-Arg-Leu-Leu-Asp-Asp-Arg-His-Asp-Ser32-Gly-Leu-Asp-Ser36-Met-Lys-Asp-Glu-Glu) (American Peptide Co.). […] ATP was measured using a Top-Count NXT (Packard).

An IC50 [1] greater than 100 µM and a melting point of 258 to 259 °C were found for `COc1ccc(-c2ccc3c(C(N)=O)nn(-c4ccc(S(N)(=O)=O)cc4)c3c2)cc1` [Example 1, 1-[4-(aminosulfonyl)phenyl]-6-(4-methoxyphenyl)-1H-indazole-3-carboxamide] in this work.
A melting point of 314 to 315 °C was found for `NC(=O)c1nn(-c2ccc(S(N)(=O)=O)cc2)c2cc(-c3ccc(F)cc3)ccc12` [Example 2, 1-[4-(aminosulfonyl)phenyl]-6-(4-fluorophenyl)-1H-indazole-3-carboxamide] in this work.
A melting point of 261 to 263 °C was found for `Cc1cccc(-c2ccc3c(C(N)=O)nn(-c4ccc(S(N)(=O)=O)cc4)c3c2)c1` [Example 3, 1-[4-(aminosulfonyl)phenyl]-6-(3-methylphenyl)-1H-indazole-3-carboxamide] in this work.
An IC50 [1] greater than 100 µM and a melting point of 262 to 263 °C were found for `CC(C)(C)c1ccc(-c2ccc3c(C(N)=O)nn(-c4ccc(S(N)(=O)=O)cc4)c3c2)cc1` [Example 4, 1-[4-(aminosulfonyl)phenyl]-6-(4-tert-butylphenyl)-1H-indazole-3-carboxamide] in this work.
A melting point of 300 to 302 °C was found for `Cc1cc(-c2ccc3c(C(N)=O)nn(-c4ccc(S(N)(=O)=O)cc4)c3c2)ccc1F` [Example 5, 1-[4-(aminosulfonyl)phenyl]-6-(4-fluoro-3-methylphenyl)-1H-indazole-3-carboxamide] in this work.
An IC50 [1] greater than 100 µM and a melting point of 237 to 238 °C were found for `CN(C)c1cccc(-c2ccc3c(C(N)=O)nn(-c4ccc(S(N)(=O)=O)cc4)c3c2)c1` [Example 6, 1-[4-(aminosulfonyl)phenyl]-6-[3-(dimethylamino)phenyl]-1H-indazole-3-carboxamide] in this work.
A melting point of 159 to 160 °C was found for `CNc1cccc(-c2ccc3c(C(N)=O)nn(-c4ccc(S(N)(=O)=O)cc4)c3c2)c1` [Example 7, 1-[4-(aminosulfonyl)phenyl]-6-[3-(methylamino)phenyl]-1H-indazole-3-carboxamide] in this work.
A melting point of 301 to 302 °C was found for `NC(=O)c1nn(-c2ccc(S(N)(=O)=O)cc2)c2ccncc12` [Example 8, 1-[4-(aminosulfonyl)phenyl]-1H-pyrazolo[4,3-c]pyridine-3-carboxamide] in this work.
A melting point of 251 to 252 °C was found for `Cc1ccc2c(C(N)=O)nn(-c3ccc(S(N)(=O)=O)cc3)c2c1` [Example 9, 1-[4-(aminosufony)phenyl]-6-methyl-1H-indazole-3-carboxamide] in this work.
A melting point of 232 to 234 °C was found for `NC(=O)c1nn(-c2ccc(S(N)(=O)=O)cc2)c2cc(-c3ccccc3)ccc12` [Example 10, 1-[4-(aminosulfonyl)phenyl]-6-phenyl-1H-indazole-3-carboxamide] in this work.
An IC50 [1] of 1 µM and a melting point of 229 to 230 °C were found for `COc1cccc(-c2ccc3c(C(N)=O)nn(-c4ccc(S(N)(=O)=O)cc4)c3c2)c1` [Example 11, 1-[4-(aminosulfonyl)phenyl]-6-(3-methoxyphenyl)-1H-indazole-3-carboxamide] in this work.
A melting point of 207 to 209 °C was found for `NC(=O)c1nn(-c2ccc(S(N)(=O)=O)cc2)c2cc(Cc3ccccc3)ccc12` [Example 12, 1-[4-(aminosulfonyl)phenyl]-6-benzyl-1H-indazole-3-carboxamide] in this work.
A melting point of 213 to 214 °C was found for `CCOc1ccc2c(C(N)=O)nn(-c3ccc(S(N)(=O)=O)cc3)c2c1` [Example 13, 1-[4-(aminosulfonyl)phenyl]-6-ethoxy-1H-indazole-3-carboxamide] in this work.
A melting point of 249 to 251 °C was found for `CCc1ccc2c(C(N)=O)nn(-c3ccc(S(N)(=O)=O)cc3)c2c1` [Example 14, 1-[4-(aminosulfonyl)phenyl]-6-ethyl-1H-indazole-3-carboxamide] in this work.
A melting point of 310 to 313 °C was found for `NC(=O)c1nn(-c2ccc(S(N)(=O)=O)cc2)c2cc(-c3cccnc3)ccc12` [Example 15, 1-[4-(aminosulfonyl)phenyl]-6-pyridin-3-yl-1H-indazole-3-carboxamide] in this work.
